The values that follow come from BindingDB's records for doi:10.1021/jm060199b (Abbott Laboratories, 2006).

The term IC50 denotes the concentration at which inhibition is half-maximal. High values mean weaker potency in that assay, low ones greater potency in that assay.

For the assay, the target named is Mitogen-activated protein kinase 8 (Homo sapiens, UniProt P45983). Put plainly: ATF-2 Phosphorylation Assay.
Mitogen-activated protein kinase 8, sequence (P45983 whole entry): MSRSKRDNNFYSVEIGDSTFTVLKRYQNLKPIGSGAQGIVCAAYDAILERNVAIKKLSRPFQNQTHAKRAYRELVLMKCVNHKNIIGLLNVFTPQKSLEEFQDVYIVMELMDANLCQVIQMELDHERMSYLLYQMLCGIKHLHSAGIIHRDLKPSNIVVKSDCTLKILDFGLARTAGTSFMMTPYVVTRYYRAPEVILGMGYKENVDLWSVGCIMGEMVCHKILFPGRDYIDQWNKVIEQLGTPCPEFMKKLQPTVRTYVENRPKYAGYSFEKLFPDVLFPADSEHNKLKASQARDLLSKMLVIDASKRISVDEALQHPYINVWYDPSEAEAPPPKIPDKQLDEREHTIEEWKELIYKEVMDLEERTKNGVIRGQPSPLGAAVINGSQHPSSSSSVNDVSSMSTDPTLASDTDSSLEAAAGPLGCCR

On to `CCOc1cccc(NC(C)=O)n1` [N-(6-ethoxypyridin-2-yl)acetamide], for which the 50% inhibitory concentration (IC50) was more than 10 µM.
